Reference: patent US20220378923A1, “BET DEGRADER” (KYOWA KIRIN CO., LTD., priority 2019, published 2022)
Where two headings read alike, the source gives them in different places.

Tested on: SU-DHL-4 cells
Test: Inhibitory effect on cell viability in SU-DHL-4 cell line (Test Example 1)
Format: cell-based, human
Conditions: SU-DHL-4 cells, 72 hours, Cell Counting Kit-8, concentration showing 90% inhibition of cell viability, read-out: SU-DHL-4 Cell Viability Inhibition Rate IC90
In short: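 SU-DHL-4 cells were grown at 37° C. under 5% CO2 in RPMI1640 with 10 vol % heat-inactivated FBS plus penicillin/streptomycin, seeded and precultured for 18 to 25 hours, then exposed to test compound at 0.1 vol % DMSO for 72 hours. Viability was read with Cell Counting Kit-8 by absorbance at 450 nm.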

SMILES	IC90	IC90 (Homo sapiens)
CCC(=O)N1c2ccccc2[C@H](Nc2ccc(-c3cn4c(n3)CN(C(=O)C3CCC(N[C@@H]5C[C@H](C)N(C(=O)CC)c6ccccc65)CC3)CC4)cc2)C[C@@H]1C (relative stereo) [Compound 7b, 1-((2S*,4R*)-2-Methyl-4-(((1R,4r)-4-(2-(4-(((2S,4R)-2-methyl-1-propionyl-1,2,3,4-tetrahydroquinolin-4-yl)amino)phenyl)-5,6,7,8-tetrahydroimidazo[1,2-a]pyrazine-7-carbonyl)cyclohexyl)amino)-3,4-dihydroquinolin-1(2H)-yl)propan-1-one]	1.51 nM	
CCC(=O)N1c2ccccc2[C@H](Nc2ccc(C(=O)NC3CCN(C(=O)c4ccc(C5=N[C@@H](CC(=O)OC(C)(C)C)c6nnc(C)n6-c6sc(C)c(C)c65)cc4)CC3)cc2)C[C@@H]1C [Compound 13j, tert-Butyl 2-((S)-2,3,9-trimethyl-4-(4-(4-(4-(((2S,4R)-2-methyl-1-propionyl-1,2,3,4-tetrahydroquinolin-4-yl)amino)benzamide)piperidine-1-carbonyl)phenyl)-6H-thieno[3,2-f][1,2,4]triazolo[4,3-a][1,4]diazepin-6-yl)acetate]	0.31 nM	
CCC(=O)N1c2ccccc2[C@H](Nc2ccc(NC(=O)CCCC(=O)Nc3ccc(Oc4ccccc4-c4cn(C)c(=O)cc4OC)cc3)cc2)C[C@@H]1C [Compound 16k, N^1-(4-(2-(4-Methoxy-1-methyl-6-oxo-1,6-dihydropyridin-3-yl)phenoxy)phenyl)-N5-(4-(((2S,4R)-2-methyl-1-propionyl-1,2,3,4-tetrahydroquinolin-4-yl)amino)phenyl)glutaramide]		0.9 nM
CCC(=O)N1c2ccccc2[C@H](Nc2ccc(NC(=O)CCCC(=O)NC3CC4(C3)CN(Cc3cc(O)cc(-c5c(C)noc5C)c3)C4)cc2)C[C@@H]1C [Compound 16g, N^1-(2-(3-(3,5-Dimethylisoxazol-4-yl)-5-hydroxybenzyl)-2-azaspiro[3.3]heptan-6-yl)-N5-(4-(((2S,4R)-2-methyl-1-propionyl-1,2,3,4-tetrahydroquinolin-4-yl)amino)phenyl)glutaramide]		14.9 nM
CCC(=O)N1c2ccccc2[C@H](Nc2ccc(NC(=O)COCC(=O)NC3CCC(N[C@@H]4C[C@H](C)N(C(=O)CC)c5ccccc54)CC3)cc2)C[C@@H]1C (stereo partly drawn) [Compound 8b, N-((1R,4r)-4-(((2S,4R)-2-Methyl-1-propionyl-1,2,3,4-tetrahydroquinolin-4-yl)amino)cyclohexyl)-2-(2-((4-(((2S,4R)-2-methyl-1-propionyl-1,2,3,4-tetrahydroquinolin-4-yl)amino)phenyl)amino)-2-oxyethoxy)acetamide]	13.9 nM	
CCC(=O)N1c2ccccc2[C@H](Nc2ccc(NC(=O)C3CN(C(=O)N[C@H]4CC[C@H](N[C@@H]5C[C@H](C)N(C(=O)CC)c6ccccc65)CC4)C3)cc2)C[C@@H]1C [Compound 7c, N^1-((1R,4r)-4-(((2S,4R)-2-Methyl-1-propionyl-1,2,3,4-tetrahydroquinolin-4-yl)amino)cyclohexyl)-N^3-(4-(((2S,4R)-2-methyl-1-propionyl-1,2,3,4-tetrahydroquinolin-4-yl)amino)phenyl)azetidine-1,3-dicarboxamide]	7 nM	
CCC(=O)N1c2ccccc2[C@H](Nc2ccc(NC(=O)CCCC(=O)NC3CCC(Cn4c(CC)cc5c4CCCC5=O)CC3)cc2)C[C@@H]1C (stereo partly drawn) [Compound 17b, N^1-((1r,4r)-4-((2-Ethyl-4-oxo-4,5,6,7-tetrahydro-1H-indol-1-yl)methyl)cyclohexyl)-N5-(4-(((2S,4R)-2-methyl-1-propionyl-1,2,3,4-tetrahydroquinolin-4-yl)amino)phenyl)glutaramide]	1.74 nM	
CCC(=O)N1c2ccccc2[C@H](Nc2ccc(NC(=O)CNC(=O)Nc3ccc(N[C@@H]4C[C@H](C)N(C(=O)CC)c5ccccc54)cc3)cc2)C[C@@H]1C (relative stereo) [Compound 6j, N-(4-(((2S*,4R*)-2-Methyl-1-propionyl-1,2,3,4-tetrahydroquinolin-4-yl)amino)phenyl)-2-(3-(4-(((2S*,4R*)-2-methyl-1-propionyl-1,2,3,4-tetrahydroquinolin-4-yl)amino)phenyl)ureido)acetamide]		0.13 nM
CCC(=O)N1c2ccccc2[C@H](Nc2ccc(NC(=O)CCCC(=O)Nc3ccc(Cn4c(CC)cc5c4CCCC5=O)cc3)cc2)C[C@@H]1C [Compound 15i]	0.88 nM	
CCNC(=O)C[C@@H]1N=C(c2ccc(C(=O)NCCCNC(=O)c3ccc(N[C@@H]4C[C@H](C)N(C(=O)CC)c5ccccc54)cc3)cc2)c2c(sc(C)c2C)-n2c(C)nnc21 [Compound 13e, 4-((S)-6-(2-(Ethylamino)-2-oxoethyl)-2,3,9-trimethyl-6H-thieno[3,2-f][1,2,4]triazolo[4,3-a][1,4]diazepin-4-yl)-N-(3-(4-(((2S,4R)-2-methyl-1-propionyl-1,2,3,4-tetrahydroquinolin-4-yl)amino)benzamide)propyl)benzamide]	3.33 nM	
CCC(=O)N1c2ccccc2[C@H](Nc2ccc(C(=O)NCC(=O)CNC(=O)c3ccc(C4=NCc5nnc(C)n5-c5sc(C)c(C)c54)cc3)cc2)C[C@@H]1C [Compound 14l, 4-(((2S,4R)-2-Methyl-1-propionyl-1,2,3,4-tetrahydroquinolin-4-yl)amino)-N-(2-oxo-3-(4-(2,3,9-trimethyl-6H-thieno[3,2-f][1,2,4]triazolo[4,3-a][1,4]diazepin-4-yl)benzamide)propyl)benzamide]	0.6 nM	
CCC(=O)N1c2ccccc2[C@H](Nc2ccc(NC(=O)CNC(=O)NC3CCN(Cc4cc(O)cc(-c5c(C)noc5C)c4)CC3)cc2)C[C@@H]1C [Compound 17k, 2-(3-(1-(3-(3,5-Dimethylisoxazol-4-yl)-5-hydroxybenzyl)piperidin-4-yl)ureido)-N-(4-(((2S,4R)-2-methyl-1-propionyl-1,2,3,4-tetrahydroquinolin-4-yl)amino)phenyl)acetamide]		43.7 nM
CCC(=O)N1c2ccccc2[C@H](Nc2ccc(C(=O)NCCNC(=O)c3ccc(C4=N[C@@H](CC(=O)OC(C)(C)C)c5nnc(C)n5-c5sc(C)c(C)c54)cc3)cc2)C[C@@H]1C [Compound 1o, tert-Butyl 2-[(S)-2,3,9-trimethyl-4-(4-{[2-(4-{[(2S,4R)-2-methyl-1-propionyl-1,2,3,4-tetrahydroquinolin-4-yl]amino}benzamide)ethyl]carbamoyl}phenyl)-6H-thieno[3,2-f][1,2,4]triazolo[4,3-a][1,4]diazepin-6-yl]acetate]	3.18 nM	
CCC(=O)N1c2ccccc2[C@H](Nc2ccc(NC(=O)CCCC(=O)NC34CC(NCc5cc(O)cc(-c6c(C)noc6C)c5)(C3)C4)cc2)C[C@@H]1C [Compound 16i, N^1-(3-((3-(3,5-Dimethylisoxazol-4-yl)-5-hydroxybenzyl)amino)bicyclo[1.1.1]pentan-1-yl)-N5-(4-(((2S,4R)-2-methyl-1-propionyl-1,2,3,4-tetrahydroquinolin-4-yl)amino)phenyl)glutaramide]		7.84 nM
CCC(=O)N1c2ccccc2[C@H](Nc2ccc(C(=O)NCC#CC(=O)NC3CC(N[C@@H]4C[C@H](C)N(C(=O)CC)c5ccccc54)C3)cc2)C[C@@H]1C (relative stereo) [Compound 10f, 4-(((2S,4R)-2-Methyl-1-propionyl-1,2,3,4-tetrahydroquinolin-4-yl)amino)-N-(4-(((1R,3R)-3-(((2S*,4R*)-2-methyl-1-propionyl-1,2,3,4-tetrahydroquinolin-4-yl)amino)cyclobutyl)amino)-4-oxobut-2-yn-1-yl)benzamide]	0.92 nM	
CCC(=O)N1c2ccccc2[C@H](Nc2ccc(C(=O)NCCCNC(=O)c3ccc(C4=NCc5nnc(C)n5-c5sc(C)c(C)c54)cc3)cc2)C[C@@H]1C (relative stereo) [Compound 1f, 4-{[(2S*,4R*)-2-Methyl-1-propionyl-1,2,3,4-tetrahydroquinolin-4-yl]amino}-N-{3-[4-(2,3,9-trimethyl-6H-thieno[3,2-f][1,2,4]triazolo[4,3-a][1,4]diazepin-4-yl)benzamide]propyl}benzamide]	4.78 nM	
CCC(=O)N1c2ccccc2[C@H](Nc2ccc(-c3nc(CNC(=O)C4CCC(N[C@@H]5C[C@H](C)N(C(=O)CC)c6ccccc65)CC4)no3)cc2)C[C@@H]1C (relative stereo) [Compound 8k, (1R,4R)-4-(((2S*,4R*)-2-Methyl-1-propionyl-1,2,3,4-tetrahydroquinolin-4-yl)amino)-N-((5-(4-(((2S,4R)-2-methyl-1-propionyl-1,2,3,4-tetrahydroquinolin-4-yl)amino)phenyl)-1,2,4-oxadiazol-3-yl)methyl)cyclohexane-1-carboxamide]	0.26 nM	
